{
  "source": "patent US12396975B2",
  "about": "“Treatment of al amyloidosis with melflufen” (Oncopeptides AB, priority 2019, dated 2025)",
  "key": {"ALMC-2 cell line": {"test_system": "ALMC-2 cell line", "experiment": "Cell viability by CellTiter-Blue, ALMC-2", "type": "cell-based, human", "conditions": "72 h", "description": "(§1) Cellular toxicity was measured in response to either melflufen or melphalan in the amyloidosis patient-derived light chain secreting ALMC-1 and ALMC-2 cell lines, and the light chain secreting cell line JJN3.\n(§2) Cells were plated in a 96-well format in the presence of the indicated compound in doses ranging from 0.014 to 10 mM for 72 hours at 37° C. Cell viability was determined by CellTiter-Blue™ using the manufacturer's standard protocol. Lambda and kappa light chain secretion was measured in the supernatant of cells by ELISA.\n(§3) In more detail, for each cell line (JJN3, ALMC-1 and ALMC-2) cells were harvested, washed, re-suspended into full growth media and counted. The cells were seeded at the cell densities shown in Table 1, below, into the inner 60 wells of a 96-well assay plates (Corning, black-wall plates, Cat #3904) in 50 μl/well aliquots. The plates were incubated overnight at 37° C. in 5% humidified CO2. 10 mM stocks of melphalan or melflufen-HCl were used, and sub-aliquots were prepared from the 10 mM stocks of melphalan or melflufen-HCl by diluting the stock. […]\n(§4) 50 microliters per well of compound/vehicle dilutions were added to the plates in replicates of 3 and incubated for 72 h at 37° C. in 5% humidified CO2. […] Fluorescence was measured using a VarioSkan Flash plate reader (570 nm excitation wavelength, 600 nm emission wavelength)."}, "[1]": {"test_system": "lambda light chain secretion in ALMC-2 cells", "experiment": "Human Lambda ELISA of light chain secretion, ALMC-2", "type": "cell-based", "conditions": "72 h; for pIC50: Homo sapiens, ALMC2, light chain secretion in supernatant", "description": "as §2\n(§5) In more detail, for each cell line (JJN3, ALMC-1 and ALMC-2) cells were harvested, washed, re-suspended into full growth media and counted. The cells were seeded at the cell densities shown in Table 1, below, into the inner 60 wells of a 96-well assay plates (Corning, black-wall plates, Cat #3904) in 50 μl/well aliquots. The plates were incubated overnight at 37° C. in 5% humidified CO2. 10 mM stocks of melphalan or melflufen-HCl were used, and sub-aliquots were prepared from the 10 mM stocks of melphalan or melflufen-HCl by diluting the stock. The diluted stock was added into cell culture media at the indicated concentrations for the experiment (0.014 to 10 mM).\n(§6) For analysis of secreted proteins, 72 h after incubation, the cells were pelleted by centrifugation at 300 RCF, 4° C. for 5 min and the supernatant taken and used immediately for ELISA analysis using commercial ELISA kits (below) and the manufacturer's protocols: • Human Kappa ELISA (Bethyl Laboratories, #E80-115) • Human Lambda ELISA (Bethyl Laboratories, #E80-116)"}, "JJN3 cell line": {"test_system": "JJN3 cell line", "experiment": "Cell viability by CellTiter-Blue, JJN3", "type": "cell-based, human", "conditions": "72 h; for pIC50: Homo sapiens, JJN-3, cell viability, CellTiter-Blue, doses 0.014 to 10 mM", "description": "as §1, §2, §5\n50 microliters per well of compound/vehicle dilutions were added to the plates in replicates of 3 and incubated for 72 h at 37° C. in 5% humidified CO2. To develop the plates after 72 h, 20 μl of CellTiter-Blue™ reagent was added to each test/blank well. The plates were incubated at 37° C., 5% humidified CO2 for 1.5/3 h. Fluorescence was measured using a VarioSkan Flash plate reader (570 nm excitation wavelength, 600 nm emission wavelength)."}, "[2]": {"test_system": "plasma cells (CD138+ cells) within bone marrow mononuclear cell samples from AL amyloidosis patients", "experiment": "Multiplexed high throughput flow cytometry cytotoxicity assay on patient-derived bone marrow mononuclear cells", "type": "cell-based, human", "conditions": "for pEC50: Homo sapiens; for Cytotoxicity compared to melphalan: in vitro AL amyloidosis cell model, identical concentrations; for Response of plasma cells (CD138+ cells) to treatment: 1 to 100,000 nM", "description": "Viably frozen bone marrow mononuclear cells (MNC) from 11 amyloidosis patients were received from a biobank.\nViably frozen cells were thawed and incubated overnight to exclude apoptotic cells. On Day 1, a homogeneous cell suspension at a density of 2×10^6 cells/ml was prepared in RPMI 1640 medium (Lonza) supplemented with 10% fetal bovine serum, 2 mM L-glutamine, penicillin (100 U/ml), streptomycin (100 μg/ml) and 25% conditioned medium from the HS-5 human BM stromal cell line. Melflufen powders were stored in pre-weighted amounts in vials in oxygen and moisture free storage pods. Fresh 10 mM melflufen aliquots were prepared in DMSO. Serial dilutions were prepared in cell culture media and immediately transferred to 96 well plate containing mononuclear cells.\nA multiplexed high throughput flow cytometer based assay (iQue® Screener PLUS) was applied, allowing simultaneous monitoring of drug responses in multiple hematopoietic cell subsets. A panel of eight antibodies against CD8, CD14, CD19, CD38, CD45, CD56, CD138 and CD269 were purchased. Annexin-V and 7-AAD were included to exclude dead or apoptotic cells from the analysis. Optimal antibody concentrations were determined and fluorescence compensations were computed to correct spectral overlaps between different fluorochromes. The plates containing melflufen treated cells were incubated in a humidified environment at 37° C. and 5% CO2. After 72 h, antibody cocktails were added to the wells and incubated for 30 min before the plates were read with the iQue® Screener PLUS instrument (Intellicyt®). The data was analyzed using ForeCyt software (Intellicyt). Graphpad Prism 7.0 to generate dose response graphs. Singlet mononuclear cells were subjected to dead and apoptotic cell exclusion using DNA staining dye 7-AAD and expression of Annexin-V surface antigens. Live cell counts for each cell populations were used to analyse effect of different doses on cell viability. Surviving cell fraction were computed by normalizing with viability of untreated cells for each cell subsets.\nMelflufen was tested in six concentration over 100,000-fold dilutions (1 to 100,000 nM). Out of 12 cell samples tested, two samples were excluded due to poor viability. The viable samples were assigned the reference numbers AL-1886, AL-2983, AL-4839_2, AL-4839_3, AL-4847, AL-5691, AL-5716, AL-5807, AL-7219, AL-400081."}, "[3]": {"test_system": "lambda light chain secretion in ALMC-1 cells", "experiment": "Human Lambda ELISA of light chain secretion, ALMC-1", "type": "cell-based", "conditions": "72 h; for pIC50: Homo sapiens, ALMC1, light chain secretion in supernatant", "description": "as §2, §5, §6"}, "[4]": {"test_system": "kappa light chain secretion in JJN3 cells", "experiment": "Human Kappa ELISA of light chain secretion, JJN3", "type": "cell-based", "conditions": "72 h", "description": "as §2, §5, §6"}, "[5]": {"test_system": "MM.1S, RPMI-8826, U266 and ALMC-2 cells", "experiment": "Apoptosis and unfolded protein response (UPR) markers in malignant cell lines", "type": "cell-based, human", "conditions": "all cell lines tested; 6 h, 12 h or 24 h", "description": "The toxic effects of melflufen and melphalan were compared in malignant cell lines, including RPMI-8826, ALMC-2, MM1S, and U266 to confirm enhanced toxicity of melflufen compared to melphalan. ALMC-2 cells are derived from an amyloidosis patient. MM.1S, RPMI-8826, U266 or ALMC-2 cells were incubated in the presence or absence of melflufen-HCl or melphalan at the indicated concentrations in FIG. 5A for 6 h, 12 h or 24 h. Cells were then harvested and apoptosis and cell death in response to melflufen and melphalan were measured by Annexin V/propidium iodide and live/dead cell staining by flow cytometry, as well as analysis of cleaved caspases 3, 8, and 9 and PARP by western blot. Effects of melflufen and melphalan on the UPR were examined by analysis of UPR associated molecules including phosphorylated eIF2a, ATF4, IRE1a and PERK by immunoblot analysis using commercially available detection reagents and standard protocols, and ATF4, ATF6, PERK, IRE1 and CHOP by real time qPCR with gene specific primer sets. In addition, XBP-1 splicing was evaluated by PCR analysis."}, "ALMC-1 cell line": {"test_system": "ALMC-1 cell line", "experiment": "Cell viability by CellTiter-Blue, ALMC-1", "type": "cell-based, human", "conditions": "72 h", "description": "as §1, §2, §3, §4"}, "AL amyloidosis": {"test_system": "AL amyloidosis", "conditions": "cited from earlier work"}},
  "note": "pEC50, pIC50: −log10 of the molar value. Read-outs that look alike come from different tables or passages of the source.",
  "data": [
    {"smiles": "CCOC(=O)[C@H](Cc1ccc(F)cc1)NC(=O)[C@@H](N)Cc1ccc(N(CCCl)CCCl)cc1.Cl", "note": "[melflufen, L-Melphalanyl-4-fluoro-L-phenylalanine ethyl ester]", "values": [
      {"measurement": "Sensitivity compared with melphalan", "setting": "ALMC-2 cell line; ALMC-2", "value": "increased sensitivity"},
      {"measurement": "pIC50", "setting": "ALMC-2 cell line; Homo sapiens, ALMC2, cell viability, CellTiter-Blue, doses 0.014 to 10 mM", "value": 5.92},
      {"measurement": "Inhibition of light chain secretion compared to melphalan", "setting": "[1]; ALMC-2", "value": "superior inhibition"},
      {"measurement": "pIC50", "setting": "[1]", "value": 6.35},
      {"measurement": "pIC50", "setting": "JJN3 cell line", "value": 5.92},
      {"measurement": "Sensitivity compared with melphalan", "setting": "JJN3 cell line; JJN3", "value": "increased sensitivity"},
      {"measurement": "pEC50", "setting": "[2]; 72 h, sample AL-2983, 72 h, read-out: EC50, survival of plasma cells (CD138+ cells)", "value": 8.15},
      {"measurement": "pEC50", "setting": "[2]; 72 h, sample AL-4847, 72 h, read-out: EC50, survival of plasma cells (CD138+ cells)", "value": 7.49},
      {"measurement": "pEC50", "setting": "[2]; 72 h, sample AL-5807, 72 h, read-out: EC50, survival of plasma cells (CD138+ cells)", "value": 9.00},
      {"measurement": "pEC50", "setting": "[2]; cell samples obtained from a population of AL amyloidosis patients, lowest value, read-out: EC50 values as low as, in vitro AL amyloidosis cell model", "value": "≤ 9.00"},
      {"measurement": "Cytotoxicity compared to melphalan", "setting": "[2]", "value": "at least 100 times"},
      {"measurement": "Cytotoxicity compared to melphalan", "setting": "[2]; listed as Melflufen", "value": 100, "unit": "times"},
      {"measurement": "Cytotoxicity in in vitro AL amyloidosis cell model", "setting": "[2]; plasma cells obtained from patients", "value": "highly cytotoxic"},
      {"measurement": "Response of plasma cells (CD138+ cells) to treatment", "setting": "[2]; samples AL-1886, AL-4839_2, AL-4839_3, AL-5716 and AL-7219, 72 h", "value": "no notable response"},
      {"measurement": "Response of plasma cells (CD138+ cells) to treatment", "setting": "[2]; samples AL-2983, AL-4847, AL-5691, AL-5807 and AL-400081, 72 h", "value": "displayed sensitivity"},
      {"measurement": "Inhibition of light chain secretion compared to melphalan", "setting": "[3]; ALMC-1", "value": "superior inhibition"},
      {"measurement": "pIC50", "setting": "[3]", "value": 6.70},
      {"measurement": "pIC50", "setting": "[4]; Homo sapiens, JJN-3, light chain secretion in supernatant", "value": 5.54},
      {"measurement": "Inhibition of light chain secretion compared to melphalan", "setting": "[4]; JJN3", "value": "superior inhibition"},
      {"measurement": "Sensitivity with regard to inducing apoptosis, XBP-1 splicing and markers of UPR and apoptosis, compared to melphalan", "setting": "[5]", "value": "significantly more sensitive to melflufen than melphalan"},
      {"measurement": "Sensitivity compared with melphalan", "setting": "ALMC-1 cell line; ALMC-1", "value": "increased sensitivity"},
      {"measurement": "pIC50", "setting": "ALMC-1 cell line; Homo sapiens, ALMC1, cell viability, CellTiter-Blue, doses 0.014 to 10 mM", "value": 5.80}
    ]},
    {"smiles": "N[C@@H](Cc1ccc(N(CCCl)CCCl)cc1)C(=O)O", "note": "[melphalan, reference compound]", "values": [
      {"measurement": "pIC50", "setting": "[1]", "value": 5.29},
      {"measurement": "pIC50", "setting": "JJN3 cell line", "value": 5.27},
      {"measurement": "pIC50", "setting": "[3]", "value": 5.60},
      {"measurement": "Treatment-related toxicity and mortality", "setting": "AL amyloidosis; high-dose melphalan (for example 200 mg/m^2) with autologous hematopoietic stem cell rescue", "value": "significant treatment-related toxicity and high treatment related mortality rates"},
      {"measurement": "Plasma cell levels and survival", "setting": "AL amyloidosis; melphalan (for example 20-25 mg/m^2) in combination with prednisolone", "value": "reduce plasma cell levels and increase survival rates by a few months"}
    ]}
  ]
}
